Data: ChEMBL document CHEMBL1130706, “Synthesis and structure-activity relationships of adenosine analogs as inhibitors of trypanosomal glyceraldehyde-3-phosphate dehydrogenase. Modifications at positions 5' and 8” (Bioorg Med Chem Lett, 1998)

Experiment: Inhibition of Leishmania mexicana GAPDH(glyceraldehyde-3-phosphate dehydrogenase)
With `Nc1ncnc2c1nc(-c1cccs1)n2[C@@H]1O[C@H](CO)[C@@H](O)[C@H]1O` the Ki was 300 µM. Work on `CC(C)Nc1nc2c(N)ncnc2n1C1O[C@H](CO)[C@@H](O)[C@H]1O` (some centres undefined) yielded a Ki of 1500 µM. `CC(C)=CCNc1ncnc2c1nc(-c1cccs1)n2C1O[C@H](CO)[C@@H](O)[C@H]1O` (some centres undefined) showed a Ki of 9 µM. `Nc1ncnc2c1ncn2C1O[C@H](CNC(=O)c2ccccc2)[C@@H](O)[C@H]1O` (some centres undefined) gave a Ki of 3300 µM. `OC[C@H]1O[C@@H](n2cnc3c(NCc4ccccc4)ncnc32)[C@H](O)[C@@H]1O` [N6-BENZYLADENOSINE] showed a Ki of 2800 µM. In the case of `Nc1ncnc2c1ncn2[C@@H]1O[C@H](CO)[C@@H](O)[C@H]1O` [ADENOSINE], the Ki is reported as 2500 µM. `O=C1c2ccccc2C(=O)N1C[C@H]1OC(n2cnc3c(NCc4ccccc4)ncnc32)[C@H](O)[C@@H]1O` (some centres undefined) showed a Ki of 4000 µM. Work on `NC(=O)c1ccccc1C(=O)NC[C@H]1OC(n2cnc3c(NCc4ccccc4)ncnc32)[C@H](O)[C@@H]1O` (some centres undefined) yielded a Ki of 800 µM.

Experiment: Compound was tested for the inhibition of Leishmania mexicana GAPDH(glyceraldehyde-3-phosphate dehydrogenase)
With `CC(C)=CCNc1ncnc2c1nc(-c1cccs1)n2C1O[C@H](CO)[C@@H](O)[C@H]1O` (some centres undefined) the Ki was 18 µM.
